In article PMC4979471 (Cell Death Discovery, 2015):
Like-named read-outs stand apart in the source and are kept apart here.

What was measured:
Assay in all cases: Kinase selectivity, P33-radiolabeled assay
Type in all cases: biochemical
Conditions in all cases: 10 μM ATP
CAMK2d = molecular target: T1, CAMK2d (Homo sapiens, UniProt Q13557)
T1 construct: purchased Reaction Biology Corp
How it was run: (§1)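 Each enzyme was exposed to 10 μM compound, with duplicate measurements, in reactions containing 10 μM ATP. Numbers are remaining activity as a percent of the vehicle (DMSO) signal.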

PIM2 = molecular target: T2, PIM2 (Homo sapiens, UniProt Q9P1W9)
T2 construct: purchased Reaction Biology Corp
How it was run: as §1

CK1epsilon = molecular target: T3, CK1epsilon (Homo sapiens, UniProt P49674)
T3 construct: purchased Reaction Biology Corp
How it was run: as §1

LATS1 = molecular target: T4, LATS1 (Homo sapiens, UniProt O95835)
T4 construct: purchased Reaction Biology Corp
T4 sequence (O95835 1-1130): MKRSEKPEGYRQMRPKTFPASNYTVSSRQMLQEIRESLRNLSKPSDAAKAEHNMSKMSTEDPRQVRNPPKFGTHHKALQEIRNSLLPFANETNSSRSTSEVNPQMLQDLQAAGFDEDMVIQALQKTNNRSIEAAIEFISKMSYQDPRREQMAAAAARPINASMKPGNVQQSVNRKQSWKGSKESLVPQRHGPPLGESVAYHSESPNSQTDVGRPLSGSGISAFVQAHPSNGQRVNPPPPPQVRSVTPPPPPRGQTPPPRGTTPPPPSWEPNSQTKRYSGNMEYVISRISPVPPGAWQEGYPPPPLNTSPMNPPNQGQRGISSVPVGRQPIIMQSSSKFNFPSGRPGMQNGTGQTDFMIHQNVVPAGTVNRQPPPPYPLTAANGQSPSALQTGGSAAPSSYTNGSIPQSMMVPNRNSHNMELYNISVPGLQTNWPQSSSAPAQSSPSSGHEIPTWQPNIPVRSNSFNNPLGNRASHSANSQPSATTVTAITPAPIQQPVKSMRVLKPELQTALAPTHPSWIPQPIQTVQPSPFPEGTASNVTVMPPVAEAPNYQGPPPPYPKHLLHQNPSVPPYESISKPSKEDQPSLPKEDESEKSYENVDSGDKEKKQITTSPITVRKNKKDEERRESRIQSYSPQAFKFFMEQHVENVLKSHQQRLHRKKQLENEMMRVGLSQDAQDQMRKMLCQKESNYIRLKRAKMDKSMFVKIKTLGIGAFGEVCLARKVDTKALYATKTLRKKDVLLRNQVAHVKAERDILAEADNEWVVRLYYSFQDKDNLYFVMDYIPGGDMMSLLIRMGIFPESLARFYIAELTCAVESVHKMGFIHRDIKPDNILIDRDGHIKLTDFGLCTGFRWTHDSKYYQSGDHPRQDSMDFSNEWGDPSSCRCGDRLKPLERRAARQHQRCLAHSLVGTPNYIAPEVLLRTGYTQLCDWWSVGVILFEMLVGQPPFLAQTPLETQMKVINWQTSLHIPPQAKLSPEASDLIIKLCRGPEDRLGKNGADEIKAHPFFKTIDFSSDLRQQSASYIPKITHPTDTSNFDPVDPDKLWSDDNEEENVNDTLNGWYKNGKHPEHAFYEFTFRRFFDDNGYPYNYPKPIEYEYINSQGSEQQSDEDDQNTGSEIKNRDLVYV
How it was run: as §1

FER = molecular target: T5, FER (Homo sapiens, UniProt P16591)
T5 construct: purchased Reaction Biology Corp
How it was run: as §1

MSSK1/STK23 = molecular target: T6, MSSK1/STK23 (Homo sapiens, UniProt Q9UPE1)
T6 construct: purchased Reaction Biology Corp
How it was run: as §1

LRRK2 = molecular target: T7, LRRK2 (Homo sapiens, UniProt Q5S007)
T7 construct: purchased Reaction Biology Corp
How it was run: as §1

CDK2/cyclin E = molecular target: T8, CDK2/cyclin E (Homo sapiens, UniProt P24941)
T8 construct: purchased Reaction Biology Corp
How it was run: as §1

PKG1b = molecular target: T9, PKG1b (Homo sapiens, UniProt Q13976)
T9 construct: purchased Reaction Biology Corp
T9 sequence (Q13976 1-686 isoform Q13976-2): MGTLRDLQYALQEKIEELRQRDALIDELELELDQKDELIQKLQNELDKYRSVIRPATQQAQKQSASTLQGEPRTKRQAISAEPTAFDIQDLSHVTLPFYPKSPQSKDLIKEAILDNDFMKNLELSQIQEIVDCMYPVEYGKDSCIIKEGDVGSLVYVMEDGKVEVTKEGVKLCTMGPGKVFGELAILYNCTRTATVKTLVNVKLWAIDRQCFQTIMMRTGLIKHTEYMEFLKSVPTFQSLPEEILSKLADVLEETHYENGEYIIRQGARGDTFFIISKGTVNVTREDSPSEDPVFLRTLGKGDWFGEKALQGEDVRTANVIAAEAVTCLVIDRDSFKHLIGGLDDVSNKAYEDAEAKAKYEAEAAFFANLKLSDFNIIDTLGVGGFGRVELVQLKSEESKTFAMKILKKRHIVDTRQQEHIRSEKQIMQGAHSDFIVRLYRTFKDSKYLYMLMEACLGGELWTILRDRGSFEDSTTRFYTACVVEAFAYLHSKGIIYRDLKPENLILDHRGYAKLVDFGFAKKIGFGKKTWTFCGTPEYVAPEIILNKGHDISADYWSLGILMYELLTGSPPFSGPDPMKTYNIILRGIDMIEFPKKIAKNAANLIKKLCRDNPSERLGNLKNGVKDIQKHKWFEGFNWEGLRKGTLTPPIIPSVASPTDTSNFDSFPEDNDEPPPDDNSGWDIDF
How it was run: as §1

[1] = read-out: % Enzyme Activity (relative to DMSO controls) AVG
[2] = read-out: % Enzyme Activity (relative to DMSO controls) Data 1
[3] = read-out: % Enzyme Activity (relative to DMSO controls) Data 2

T7 sequence (Q5S007 whole entry): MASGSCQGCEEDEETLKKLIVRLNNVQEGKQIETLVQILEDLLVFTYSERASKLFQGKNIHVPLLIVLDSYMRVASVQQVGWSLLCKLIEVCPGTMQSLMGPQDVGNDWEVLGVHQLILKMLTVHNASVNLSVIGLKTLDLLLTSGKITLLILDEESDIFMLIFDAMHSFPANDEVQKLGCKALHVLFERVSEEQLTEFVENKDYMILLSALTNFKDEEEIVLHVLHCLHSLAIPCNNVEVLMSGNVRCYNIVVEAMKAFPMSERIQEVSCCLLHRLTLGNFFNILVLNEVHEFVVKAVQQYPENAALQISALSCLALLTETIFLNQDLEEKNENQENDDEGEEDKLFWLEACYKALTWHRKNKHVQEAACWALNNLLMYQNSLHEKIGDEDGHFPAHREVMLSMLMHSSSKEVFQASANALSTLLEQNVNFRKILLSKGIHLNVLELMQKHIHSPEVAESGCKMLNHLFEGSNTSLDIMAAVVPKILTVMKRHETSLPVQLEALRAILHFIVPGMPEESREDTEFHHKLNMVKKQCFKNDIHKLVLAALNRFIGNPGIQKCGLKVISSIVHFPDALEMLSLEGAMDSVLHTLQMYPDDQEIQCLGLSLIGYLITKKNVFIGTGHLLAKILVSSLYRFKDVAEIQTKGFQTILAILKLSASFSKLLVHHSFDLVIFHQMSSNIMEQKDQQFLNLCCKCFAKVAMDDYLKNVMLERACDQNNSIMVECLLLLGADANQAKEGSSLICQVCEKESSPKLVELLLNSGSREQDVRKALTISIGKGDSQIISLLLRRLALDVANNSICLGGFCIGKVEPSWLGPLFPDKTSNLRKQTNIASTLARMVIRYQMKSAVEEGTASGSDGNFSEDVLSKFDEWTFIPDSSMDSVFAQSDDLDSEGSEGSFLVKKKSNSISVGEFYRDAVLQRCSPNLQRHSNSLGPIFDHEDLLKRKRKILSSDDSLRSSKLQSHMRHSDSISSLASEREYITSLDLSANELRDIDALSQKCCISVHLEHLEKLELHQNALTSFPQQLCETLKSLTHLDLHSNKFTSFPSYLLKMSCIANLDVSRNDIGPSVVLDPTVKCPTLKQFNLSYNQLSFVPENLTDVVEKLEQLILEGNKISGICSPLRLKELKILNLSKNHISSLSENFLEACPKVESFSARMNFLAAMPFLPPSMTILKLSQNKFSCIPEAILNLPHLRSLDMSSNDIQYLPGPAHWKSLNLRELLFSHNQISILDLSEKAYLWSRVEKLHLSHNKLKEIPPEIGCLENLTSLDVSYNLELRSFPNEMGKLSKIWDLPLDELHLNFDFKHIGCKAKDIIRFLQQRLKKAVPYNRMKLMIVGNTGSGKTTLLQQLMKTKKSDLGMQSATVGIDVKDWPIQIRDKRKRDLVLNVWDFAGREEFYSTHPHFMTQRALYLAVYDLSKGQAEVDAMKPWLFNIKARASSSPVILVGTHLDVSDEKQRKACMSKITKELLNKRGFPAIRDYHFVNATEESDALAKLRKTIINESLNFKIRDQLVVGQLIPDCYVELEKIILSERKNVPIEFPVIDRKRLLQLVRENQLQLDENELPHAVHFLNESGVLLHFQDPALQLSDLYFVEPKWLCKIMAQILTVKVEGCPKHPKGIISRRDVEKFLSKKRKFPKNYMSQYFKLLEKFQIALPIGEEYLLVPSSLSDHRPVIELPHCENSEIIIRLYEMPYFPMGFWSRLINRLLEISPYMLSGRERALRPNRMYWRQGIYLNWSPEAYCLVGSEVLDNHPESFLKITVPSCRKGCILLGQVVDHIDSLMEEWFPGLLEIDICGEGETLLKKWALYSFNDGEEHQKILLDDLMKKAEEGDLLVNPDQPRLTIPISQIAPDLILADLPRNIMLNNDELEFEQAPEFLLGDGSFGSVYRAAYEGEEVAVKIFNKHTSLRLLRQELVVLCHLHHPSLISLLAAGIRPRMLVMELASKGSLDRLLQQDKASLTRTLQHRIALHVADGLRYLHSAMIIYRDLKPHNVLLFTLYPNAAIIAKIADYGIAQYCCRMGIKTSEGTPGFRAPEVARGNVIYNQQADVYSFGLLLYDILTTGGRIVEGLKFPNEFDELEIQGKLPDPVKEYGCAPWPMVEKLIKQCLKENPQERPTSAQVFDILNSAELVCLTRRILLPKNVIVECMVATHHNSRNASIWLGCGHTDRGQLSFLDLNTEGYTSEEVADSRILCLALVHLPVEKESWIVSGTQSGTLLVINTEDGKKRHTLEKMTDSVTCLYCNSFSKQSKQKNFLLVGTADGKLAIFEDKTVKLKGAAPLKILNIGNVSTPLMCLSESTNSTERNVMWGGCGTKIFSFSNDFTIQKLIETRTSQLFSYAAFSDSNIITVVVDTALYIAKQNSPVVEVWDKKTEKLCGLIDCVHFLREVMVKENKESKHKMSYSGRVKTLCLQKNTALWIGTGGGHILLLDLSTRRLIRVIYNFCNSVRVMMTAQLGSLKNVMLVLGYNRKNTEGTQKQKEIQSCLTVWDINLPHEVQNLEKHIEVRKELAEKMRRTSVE
T3 sequence (P49674 whole entry): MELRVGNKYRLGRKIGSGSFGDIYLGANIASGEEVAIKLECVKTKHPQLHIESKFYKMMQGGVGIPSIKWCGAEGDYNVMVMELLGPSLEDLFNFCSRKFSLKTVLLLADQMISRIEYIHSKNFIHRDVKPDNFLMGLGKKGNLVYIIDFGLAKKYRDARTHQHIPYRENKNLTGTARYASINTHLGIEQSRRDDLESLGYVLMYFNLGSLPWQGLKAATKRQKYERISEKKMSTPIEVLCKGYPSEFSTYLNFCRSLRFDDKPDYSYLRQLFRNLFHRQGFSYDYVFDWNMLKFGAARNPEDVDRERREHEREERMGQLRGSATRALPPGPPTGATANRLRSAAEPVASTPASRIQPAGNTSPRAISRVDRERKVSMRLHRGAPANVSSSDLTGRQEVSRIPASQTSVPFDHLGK
T6 sequence (Q9UPE1 whole entry): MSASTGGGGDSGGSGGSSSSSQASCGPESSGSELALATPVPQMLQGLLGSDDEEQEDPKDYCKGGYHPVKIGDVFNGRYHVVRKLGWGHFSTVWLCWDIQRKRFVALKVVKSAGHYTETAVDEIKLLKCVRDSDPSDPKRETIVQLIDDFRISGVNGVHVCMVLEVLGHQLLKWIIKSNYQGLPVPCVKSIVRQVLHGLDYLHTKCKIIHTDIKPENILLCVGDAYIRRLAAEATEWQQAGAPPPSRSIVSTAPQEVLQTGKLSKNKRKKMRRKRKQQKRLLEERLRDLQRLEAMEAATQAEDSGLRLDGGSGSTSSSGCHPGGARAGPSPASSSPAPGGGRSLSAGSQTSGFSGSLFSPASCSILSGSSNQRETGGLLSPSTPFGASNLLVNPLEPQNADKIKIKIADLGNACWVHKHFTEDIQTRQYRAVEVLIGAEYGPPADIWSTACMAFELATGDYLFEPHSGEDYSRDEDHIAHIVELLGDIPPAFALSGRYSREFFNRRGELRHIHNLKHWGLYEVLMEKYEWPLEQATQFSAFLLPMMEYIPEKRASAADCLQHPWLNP
T1 sequence (Q13557 whole entry): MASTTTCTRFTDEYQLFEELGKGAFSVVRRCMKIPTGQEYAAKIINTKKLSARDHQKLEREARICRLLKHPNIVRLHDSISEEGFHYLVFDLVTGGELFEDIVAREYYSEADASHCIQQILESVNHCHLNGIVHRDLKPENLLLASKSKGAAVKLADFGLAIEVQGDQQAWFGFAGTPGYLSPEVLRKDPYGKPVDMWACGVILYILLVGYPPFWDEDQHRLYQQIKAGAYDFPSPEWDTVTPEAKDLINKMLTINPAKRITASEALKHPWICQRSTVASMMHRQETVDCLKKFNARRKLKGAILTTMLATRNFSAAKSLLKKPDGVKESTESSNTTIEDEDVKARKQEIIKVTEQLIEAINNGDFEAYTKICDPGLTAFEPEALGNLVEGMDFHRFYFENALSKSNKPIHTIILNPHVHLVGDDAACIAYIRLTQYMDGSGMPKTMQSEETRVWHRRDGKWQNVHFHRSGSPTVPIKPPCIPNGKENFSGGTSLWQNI
T5 sequence (P16591 whole entry): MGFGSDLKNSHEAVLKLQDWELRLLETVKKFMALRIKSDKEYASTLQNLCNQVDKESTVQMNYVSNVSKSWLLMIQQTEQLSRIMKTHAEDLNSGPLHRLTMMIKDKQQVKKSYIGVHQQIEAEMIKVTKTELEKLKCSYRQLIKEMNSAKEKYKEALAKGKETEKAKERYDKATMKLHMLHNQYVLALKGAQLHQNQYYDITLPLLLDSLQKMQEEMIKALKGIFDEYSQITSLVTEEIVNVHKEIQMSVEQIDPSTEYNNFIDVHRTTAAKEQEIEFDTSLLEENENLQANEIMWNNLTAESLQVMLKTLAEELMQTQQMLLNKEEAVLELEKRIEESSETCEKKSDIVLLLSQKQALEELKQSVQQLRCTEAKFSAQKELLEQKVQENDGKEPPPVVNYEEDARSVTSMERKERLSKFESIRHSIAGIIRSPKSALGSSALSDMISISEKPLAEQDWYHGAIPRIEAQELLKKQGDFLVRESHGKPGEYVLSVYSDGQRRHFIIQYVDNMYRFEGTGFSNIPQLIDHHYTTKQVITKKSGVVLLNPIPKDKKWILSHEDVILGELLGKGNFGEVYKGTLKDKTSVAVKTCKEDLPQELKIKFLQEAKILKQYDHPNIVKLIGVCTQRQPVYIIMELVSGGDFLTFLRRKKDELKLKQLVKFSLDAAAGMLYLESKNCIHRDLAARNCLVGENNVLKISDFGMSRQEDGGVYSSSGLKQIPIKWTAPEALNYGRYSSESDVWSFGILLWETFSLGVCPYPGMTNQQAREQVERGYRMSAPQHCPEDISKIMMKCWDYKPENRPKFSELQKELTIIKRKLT

`CC(C)(C)C(=O)N1N=CC[C@H]1c1ccccc1` [GSK′963] gave a remaining activity at 10 µM (CAMK2d; [1]) of 108%, a remaining activity at 10 µM (CAMK2d; [2]) of 109% and a remaining activity at 10 µM (CAMK2d; [3]) of 108%. The remaining activity at 10 µM (PIM2; [1]) was 115%, the remaining activity at 10 µM (PIM2; [2]) was 112% and the remaining activity at 10 µM (PIM2; [3]) was 118%. It also gave a remaining activity at 10 µM (CK1epsilon; [1]) of 93.4%, a remaining activity at 10 µM (CK1epsilon; [2]) of 96.7% and a remaining activity at 10 µM (CK1epsilon; [3]) of 90.2%. It also gave a remaining activity at 10 µM (LATS1; [1]) of 103%, a remaining activity at 10 µM (LATS1; [2]) of 103% and a remaining activity at 10 µM (LATS1; [3]) of 102%. The remaining activity at 10 µM (FER; [1]) was 107%, the remaining activity at 10 µM (FER; [2]) was 109% and the remaining activity at 10 µM (FER; [3]) was 105%. It also gave a remaining activity at 10 µM (MSSK1/STK23; [1]) of 107%, a remaining activity at 10 µM (MSSK1/STK23; [2]) of 108% and a remaining activity at 10 µM (MSSK1/STK23; [3]) of 105%. The remaining activity at 10 µM (LRRK2; [1]) was 99.5%, the remaining activity at 10 µM (LRRK2; [2]) was 102% and the remaining activity at 10 µM (LRRK2; [3]) was 97.1%. For the same molecule, the remaining activity at 10 µM (CDK2/cyclin E; [1]) was 95.2%, the remaining activity at 10 µM (CDK2/cyclin E; [2]) was 95.7% and the remaining activity at 10 µM (CDK2/cyclin E; [3]) was 94.7%. For the same molecule, the remaining activity at 10 µM (PKG1b; [1]) was 80.5%, the remaining activity at 10 µM (PKG1b; [2]) was 78.3% and the remaining activity at 10 µM (PKG1b; [3]) was 82.6%.
